Values quoted from earlier work as cited in patent US20050239746A1, “Pharmaceutical composition” (priority 2002, published 2005).

What was measured:
[1] = intravenous infusion, 3 g single dose, 8 healthy volunteers
[2] = tested on: isolated guinea pig trachea; settings: 0.1M aqueous solution in 40% w/v 2-hydroxypropyl-beta-cyclodextrin

Row | Compound | safety and tolerability [1] | muscle relaxant activity compared with the lipid emulsion [2]
1 | 2-hydroxypropyl-beta-cyclodextrin [Encapsin-HPB] | safe and well tolerated | –
2 | CC(C)c1cccc(C(C)C)c1O [Propofol, 2,6 di-isopropylphenol] | – | three times higher
